Source: patent publication US20050037446A1, “Agents that recognize src when phosphorylated at serine 17” (priority 2001, published 2005)

How the values were obtained:
Src++ and SYF cells = test: MTT assay for cell proliferation; type: cell-based, mouse; conditions: for Stimulation of cell growth: SYF cells, 48 hours
Experimental: To determine the effect of Src on cell proliferation, the following protocol was used. Src^++ and SYF cells were serum-starved overnight and plated onto 96 well plates. Cells were then treated with PDGF, EGF, Forskolin, H89, and/or PD98059 (PD, 10 μM, Cal Biochem). Cells were analyzed 48 hours later by MTT assay and data quantified (n=4±S.E.). The MTT assay for cell proliferation was conducted as follows (Schmitt and Stork, Mol. Cell. Biol. 21:3671-83, 2001). Briefly, 2.5 hours prior to lysis, 20 μl of sterile […] MTT (Sigma) was added to the cells and allowed to incubate at 37° C. At the appropriate time, cells were lysed and proteins solubilized in 50% volume/volume H2O and N,N,-dimethylformamide containing 20% SDS, 0.5% of 80% acetic acid, and 0.4% 1M HCL Plates were read using a microplate reader and presented as the difference between optical densities at […].
To quantitate cell proliferation, cells were analyzed 48 hours later by MTT assay (see EXAMPLE 3) and data was quantified (n=4±S.E.). […] Expression of Flag-Src in SYF cells restored Forskolin's ability to inhibit PDGF- and EGF-mediated cell growth.

[1] = test system: purified catalytic subunit of PKA; test: PKA kinase assay on membrane-spotted Src peptides, phospho-PKA substrate antibody; type: biochemical; conditions: 12.5 nM PKA catalytic subunit, 30° C., 30 minutes
Excerpt: A peptide identical to amino acids 9-25 within the N-terminus of wild-type Src (WT) (KDASQRRRSLEPAENVH; SEQ ID NO: 12), which contains the potential PKA phosphorylation site (underlined), was generated using an Auto-Spot Robot ASP 222 (ABiMED, Langenfeld, Germany) and spotted onto a nitrocellulose membrane. Control peptides with serines 12 and/or 17 replaced by alanine (S12A, SEQ ID NO: 13; S17A, SEQ ID NO: 14; and S12AS17A, SEQ ID NO: 15), serine 17 replaced by aspartate (S17D, SEQ ID NO: 16), and arginines at 14-16 replaced by alanine (R14A, SEQ ID NO: 17; • R15A, SEQ ID NO: 18; R16A, SEQ ID NO: 19), as well as peptides designed to both a scrambled (SEQ ID NO: 20) and an unrelated (FLAG) sequence (SEQ ID NO: 21), were also generated and spotted onto the membrane.
Using a method previously described (Tegge et al., Biochen. 34:10569-77, 1995), the membranes were pre-incubated at room temperature (RT) overnight (ON) in buffer containing 20 mM Hepes, pH 7.4, 100 mM NaCl, 2 mM MgCl2, 1 mM EDTA, 1 mM DTI, and 0.2 mg/ml BSA. Membranes were then blocked at 30° C. for one hour in buffer containing 20 mM Hepes, pH 7.4, 100 mM NaCl, 2 mM MgCl2, 1 mM EDTA, 1 mM DTT, and 1 mg/ml BSA and 30 μM cold ATP. […] The membranes were then blocked, probed, and analyzed using chemiluminescence according the manufacturers guidelines for the phospho-PKA substrate antibody. […]

Src = Src autophosphorylation at tyrosine 416 (Western blot); type: cell-based; conditions: SYF cells
Experimental: To examine the mechanism of cAMP regulation of Src, Src kinase activity was assayed in vivo by monitoring autophosphorylation of Src at tyrosine 416 (Tyr416) using previously disclosed methods (Brown and Cooper, Biochim. Biophys. Acta 1287:121-49, 1996; Martin, Nat. Rev. Mol. Cell. Biol. 2:467-75,2001).
[…] Cell lysates were prepared, and Src immunopreciptiated and analyzed by Western blot for either tyrosine phosphorylation at site 416 (p416Src) using phospho-Src (Tyr416) antibodies (Cell Signaling Technology), Flag-Src, or analyzed by Western blot for either PKA phosphorylation or Src (using Src antibodies, Santa Cruz Biotechnology Inc.), using the methods described above. Alternatively, Flag-Src was immunoprecipitated from the cell lysates and analyzed by Western blot for either Cb1 or Flag-Src.
The activation of wild type Src by Forskolin was confirmed by observing autophosphorylation of Src at Tyr416 and using an in vitro kinase assay. To measure autophosphorylation of Src at Tyr416, SYF cells were transfected with either Flag-Src (WT) or Flag-SrcS17A and treated with Forskolin and PDGF or EGF, as described above. Flag-Src was immunoprecipitated from cell lysates and analyzed by Western blot for either phosphorylation of Src on Tyr416 or the presence of Flag-Src. […]

Rap1 = Rap1 activation affinity assay (GST-RalGDS pull-down), NIH3T3 cells; type: cell-based; conditions: NIH3T3 cells, 10 μM, five minutes
Experimental: NIH3T3 cells (American Type Culture Collection, ATCC, Manassas, Va.) were cultured in Dulbecco-Modified Eagle Medium (DMEM) plus 10% fetal calf serum, penicillin/streptomycin, and L-glutamine at 37° C. in 5% CO2. Cells were maintained in serum-free DMEM for 16 hours at 37° C. in 5% CO2 prior to treatment. NIH3T3 cells were trasfected with Flag-Rap1 (see Vossler et al., Cell, 89:73-82, 1997) or stimulated with Forskolin (10 μM, Cal Biochem, Riverside, Calif.) for five minutes. Forskolin treated cells received either a pretreatment or post-treatment with 10 μM N-[2(Bromocimamylamino) ethyl]-5-isoquinolinesulfonamide (H89) (Cal Biochem, Riverside, Calif.) for 20 minutes.
Cells were co-transfected with Flag-Rap1 at seventy to eighty percent confluency with the cDNA using a Lipofectamine 2000 kit (Gibco BRL, Rockville, Md.) according to the manufacturer's instructions. The control vector, pcDNA3 (Invitrogen Corp.), was included in each set of transfections to assure that each plate received the same amount of DNA. Following transfection, cells were allowed to recover in serum containing media for 24 hours. Cells were then starved overnight in serum-free DMEM before treatment and lysis.
After treatment, cells were lysed in ice-cold lysis buffer (50 mM Tris-HCL (pH 8.0), 10% glycerol, 1% nonidet P40, 200 mM NaCl, 2.5 mM MgCl2, 1 mM phenylmethylsulfonyl fluoride, 1 μM leupeptin, 10 μln soybean trypsin inhibitor, 10 mM NaF, 0.1 μM aprotinin, and 1 mM NaVO4). Nuclei and cytoskeleton were removed from equivalent amounts of lysate by centrifugation at 5,000 rpm for five minutes. The supernatant was centrifuged at 100,000×g for one hour at 4° C. and, the resultant membrane was resuspended in cold lysis buffer. Aliquots of the membrane fraction were analyzed for the presence of C3G by Western blotting. The cytosolic or membrane fractions of treated or untreated cells were mixed with equivalent amounts of lysates from untreated Flag-Rap1 transfected cells. The mixture was incubated at 37° C. for five minutes and equal amounts of lysate were analyzed using the Rap1 activation assay to monitor Flag-Rap 1 activation by Gst-RalGDS.
The Rap1 activation affinity assay was performed as follows. A GST fusion protein of the Rap1-binding domain of RalGDS (GST-RalGDS, Dr. Bos, Utrecht University, The Netherlands) was expressed in E. coli following induction by isopropyl-1thio-β-D-galactopyranoside. Active Rap1 was isolated as previously described (Franke et al., EMBO J. 16:252-9, 1997). Briefly, equivalent amounts of supernatants (500 μg) were incubated with GST-RalGDS-Rap1 binding domain coupled to glutathione beads. Following a one hour incubation at 4° C., beads were pelleted and rinsed threes times with ice-cold lysis buffer. […] Proteins were detected using enhanced chemiluminescence.

[2] = test system: T1, Src 9-25 control peptide S12A
T1 sequence: KDAAQRRRSLEPAENVH

[3] = test system: T2, peptide identical to amino acids 9-25 within the N-terminus of wild-type Src (WT)
T2 sequence: KDASQRRRSLEPAENVH

In the case of `COc1cccc(-c2cc(=O)c3ccccc3o2)c1N` [PD98059], the “PDGF stimulation of proliferation in presence of MEK inhibitor” value (Src++ and SYF cells; Src++ and SYF cells, 10 μM) is reported as “dependent on ERK signaling” and the “Effect on PDGF- and EGF-stimulated SYF cell growth” value (Src++ and SYF cells; transfected SYF cells, pretreatment) is reported as “blocked”.
With “KDASQRRRSLEPAENVH (listed as Homo sapiens) [WT, peptide identical to amino acids 9-25 of wild-type Src]” the “Recognition by phospho-PKA substrate antibody after PKA kinase assay” value [1] was “recognized”.
In the case of “S12A: control Src 9-25 peptide with serine 12 replaced by alanine (KDAAQRRRSLEPAENVH)”, the “Recognition by phospho-PKA substrate antibody after PKA kinase assay” value [1] is reported as “recognized”.
epidermal growth factor [EGF] was tested, and the “Stimulation of cell growth” value (Src++ and SYF cells) was “stimulated SYF cell growth” and the “Activation of wild type Src and SrcS17A by growth factor” value (Src) was “activated both wild type Src and SrcS17A equally”.
platelet-derived growth factor [PDGF] was tested, and the “Stimulation of cell growth” value (Src++ and SYF cells) was “stimulated SYF cell growth” and the “Activation of wild type Src and SrcS17A by growth factor” value (Src) was “activated both wild type Src and SrcS17A equally”.
For prostaglandin E [PGE1], the “Activation of endogenous Rap1” value (Rap1) was “activated Rap1”.
With purified catalytic subunit of PKA the “phosphorylation of spotted peptide, detected with the phospho-PKA substrate antibody” value [2] was “Only the peptides containing Ser17 and adjacent arginines (WT and S12A) were recognized by the antibody, consistent with the consensus PKA recognition motif” and the “phosphorylation of spotted peptide, detected with the phospho-PKA substrate antibody” value [3] was “Only the peptides containing Ser17 and adjacent arginines (WT and S12A) were recognized by the antibody, consistent with the consensus PKA recognition motif”.
